From patent publication US12269800B2, “Delivery of therapeutic alkaloid compounds” (priority 2021, dated 2025)
Read-outs that look alike come from different tables or passages of the source.

Legend:
SERT = biological target: T1, SERT (Homo sapiens, UniProt P31645); assay: cell-based; conditions: stable 5HTT cells, 30 minutes at 37° C.
T1 construct: expressed in transfected cells

[1] = assay type: physicochemical
Description: The hydrolysis kinetics was under a certain temperature and measured by LCMS at a certain time interval. The corresponding LCMS chromatograms were recorded and the conversions were calculated. The hydrolysis conditions and the data were summarized in below table. LCMS spectra were obtained using Agilent 1200G1956A or SHIMADZU LCMS-2020. Standard LCMS conditions were as follows (running time 1.55 minutes):
Acidic condition: Mobile Phase A: 0.0375% TFA in water (v/v). Mobile Phase B: 0.01875% TFA in acetonitrile (v/v); Column: Kinetex EVO C18 30*2.1 mm, 5 μm.
Basic condition: Mobile Phase A: 0.025% NH3—H2O in water (v/v). Mobile Phase B: Acetonitrile; Column: Kinetex EVO C18 2.1×30 mm, 5 μm.
Conversion (%)=peak area 1/(peak area 1+peak area 2)*100%, peak area 1 is the integration of hydrolyzed product, peak area 2 is the integration of starting material.

[2] = fermentation, exposure to light, exposure to heat, aqueous medium; cited from earlier work
[3] = in vivo; cited from earlier work
[4] = Description: General Procedure for intravenous pharmacokinetic study in mice: Male C57/BL6 mice were used to evaluate each compound, with n=3 mice/time point. Animals were administered through intravenous route with solution formulation at 2 mg/kg dose. […] Following blood collection, immediately, animals were sacrificed, and vena-cava was cut open and blood was drained. […] Brain samples were collected from set of three mice at each time point. […] Brain samples were homogenized using 2 volumes of ice-cold PBS (pH-7.4) of brain weight. […] Concentrations of compound (or compound and metabolite) in mouse plasma and brain samples were determined by fit for purpose LC-MS/MS method.
[5] = Pharmacokinetics of 043 and 001 in mice after oral 043 (75 mg/kg); assay type: in vivo, male C57BL/6 mice; conditions: analyte as labelled, single oral administration of 043, 75 mg/kg
Description: Total twelve male mice were used in this study. […] The formulation vehicle used was normal saline.
The plasma and brain concentration-time data of 043 and 001 was used for the pharmacokinetic analysis.
The extraction procedure for plasma/brain samples and the spiked plasma/brain calibration standards were identical:
A 25 μL of study sample plasma/brain (dilution applied to some samples) or spiked plasma calibration standard was added to individual pre-labeled micro-centrifuge tubes followed by 100 μL of internal standard prepared in acetonitrile (Glipizide-500 ng/mL) was added except for blank, where 100 μL of acetonitrile was added. Samples were vortexed for 5 minutes. Samples were centrifuged for 10 minutes at a speed of 4000 rpm at 4° C. Following centrifugation, 100 μL of clear supernatant was transferred in 96 well plates and analyzed using LC-MS/MS.

[6] = Oral dose pharmacokinetic study in mice (10 mg/kg)
Description: Total thirty-five male mice were used for each study with n=5 mice/time point. Animals were administered through oral route with solution formulation at 10 mg/kg dose. The formulation vehicle used was normal saline. […] Brain samples were collected from set of five mice at 0.083, 0.25, 0.50, 1.0, 1.5, 2.0 and 3.0 h.
The plasma and brain concentration-time data of 001 was used for the pharmacokinetic analysis.

[7] = Plasma Stability Assay of Example A3, human plasma; conditions: % of prodrug compound remaining, 37° C., 0.0 min
Remark: listed apart in the source
[8] = Plasma Stability Assay of Example A3, mouse plasma; conditions: % of prodrug compound remaining, 37° C., 0.0 min
[9] = Plasma Stability Assay of Example A4, rat plasma; conditions: 37° C., % prodrug remaining
Description: (§1) 50 uL aliquots of positive controls and test compounds spiked into rat or human plasma (n=2) were added to a pre-warmed plate (37° C.) and shaken at 50 rpm. At each respective time point, the reaction was stopped by adding 500 μL of acetonitrile containing internal standards (100 nM aprozolam, 200 nM caffeine, 100 nM tolbutamide). All samples were vortexed for 10 minutes, followed by centrifugation at 3,220 g for 30 minutes to precipitate proteins. 100 μL of the supernatant is transferred to a new plate. The supernatant will be diluted with ultrapure water according to the LC-MS signal response and peak shape.

[10] = Plasma Stability Assay of Example A4, human plasma; conditions: 37° C., % prodrug remaining
Description: as §1

[11] = Hydrolysis Assay of Example A2, Condition 1 (SGF with pepsin, pH 1.5, 37° C.); assay type: physicochemical
[12] = 2 mg/kg iv in rat
Description: Brain samples were homogenized with PBS (W/V, 1:3). Plasma/brain samples were mixed with acetonitrile containing internal standard. The samples were vortexed then centrifuged at 4 degrees Celsius for 15 minutes. The supernatant was diluted with water (1:2 V/V) and analyzed by LC/MS/MS for quantitative analysis. […] Area under the curve (AUC) was calculated and divided by dose to account for molecular weight difference of prodrug and metabolite (AUC/D).

[13] = assay type: physicochemical; conditions: DI water, 25° C., 0.5 mM
[14] = 10 mg/kg po of the labelled compound in mice

T1 sequence (P31645 whole entry, species assumed): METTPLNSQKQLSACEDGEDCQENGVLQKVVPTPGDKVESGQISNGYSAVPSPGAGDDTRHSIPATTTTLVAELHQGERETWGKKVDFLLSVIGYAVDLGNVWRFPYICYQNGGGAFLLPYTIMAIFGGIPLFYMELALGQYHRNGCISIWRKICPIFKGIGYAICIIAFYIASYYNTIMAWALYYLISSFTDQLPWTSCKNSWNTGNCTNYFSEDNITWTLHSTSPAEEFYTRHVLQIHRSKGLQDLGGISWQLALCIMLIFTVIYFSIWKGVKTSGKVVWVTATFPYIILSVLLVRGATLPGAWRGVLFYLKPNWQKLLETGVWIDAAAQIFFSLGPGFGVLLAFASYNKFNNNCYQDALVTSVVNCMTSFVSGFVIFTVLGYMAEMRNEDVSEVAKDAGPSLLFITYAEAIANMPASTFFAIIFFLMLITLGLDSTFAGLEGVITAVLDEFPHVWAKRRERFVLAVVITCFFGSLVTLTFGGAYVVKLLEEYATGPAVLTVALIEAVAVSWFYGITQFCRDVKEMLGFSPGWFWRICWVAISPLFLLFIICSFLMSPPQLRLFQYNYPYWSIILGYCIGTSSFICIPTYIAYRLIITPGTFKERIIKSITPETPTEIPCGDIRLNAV

COc1ccc([C@@]23CCC(=NO)C[C@@H]2N(C)CC3)cc1OC (mixture of isomers) [Compound 037]
IC50 (SERT): < 50 nM
conversion to mesembrine ([1]; acidic pH 2.0, 25 or 37° C.): converted to mesembrine

COc1ccc([C@@]23CCC(=O)C[C@@H]2N(C)CC3)cc1OC [mesembrine]
stability [2]: unstable

COc1ccc([C@@]23CCC(=O)C[C@@H]2N(C)CC3)cc1OC [(−) mesembrine]
half-life in plasma [3]: less than 2 hours

COc1ccc([C@@]23CCC(=O)C[C@@H]2N(C)CC3)cc1OC [Compound 001, mesembrine, reference compound]
001 quantifiable in brain up to ([4]; 2 mg/kg iv of the labelled compound in mice): 60 min
plasma levels of 001 ([4]; at 60, 120, 180 min, 2 mg/kg iv in mice): not detectable
brain levels of 001 ([4]; at 120, 180 min, 2 mg/kg iv in mice): not detectable
brain concentrations quantifiable up to [5]: 4 h
Kp ([5]; male, C57BL/6, mouse, brain, read-out: brain exposure-Kp): 2.55
Tmax ([5]; male, C57BL/6, mouse, plasma, read-out: Tmax): 30 min
001 quantifiable in brain up to [6, 14]: 60 min
001 quantifiable in plasma up to [6, 14]: 2 h
brain levels of 001 ([6]; at 90, 120, 180 min, 10 mg/kg po in mice): not detectable
plasma levels of 001 ([6]; at 180 min, 10 mg/kg po in mice): not detectable
bioavailability ([6]; male, C57BL/6, mouse, plasma, po, 10 mg/kg): < 10%
Human Plasma Prodrug (%) [7]: 100.0%
Notes (stability in words) ([1]; PH = 7.4, 25° C., 0.5 mM, PBS (20 mM), 0-24 h): Stable
Notes (stability in words) ([1]; PH = 7.4, 40° C., 0.5 mM, PBS (20 mM), 0-24 h): Stable
hydrolysis ([1]; pH 2.0 in 0.01 M HCl to pH 7.4 in 20 mM PBS, 25° C. to 40° C.): did not further hydrolyze
Notes (stability in words) ([1]; pH = 2.0, 25° C., 0.5 mM, 0.01M HCl, 0-24 h): Stable
Notes (stability in words) ([1]; pH = 2.0, 40° C., 0.5 mM, 0.01M HCl, 0-24 h): Stable
Human Plasma Prodrug (%): >99%
Mouse Plasma Prodrug (%) [8]: 100.0%

COc1ccc([C@@]23CCC(OC(C)=O)=C[C@@H]2N(C)CC3)cc1OC [Compound 026, [(3aS,7aS)-3a-(3,4-dimethoxyphenyl)-1-methyl-3,4,5,7a-tetrahydro-2H-indol-6-yl] acetate]
Rat Plasma Prodrug (%) ([9]; time 0.0 min): 100.0%
Rat Plasma Prodrug (%) ([9]; time 10 min): 0.0%
Rat Plasma Prodrug (%) ([9]; time 30 min): 0.0%
Rat Plasma Prodrug (%) ([9]; time 60 min): 0.0%
Rat Plasma Prodrug (%) ([9]; time 120 min): 0.0%
Rat Plasma Prodrug (%) ([9]; time 240 min): 0.0%
Human Plasma Prodrug (%) ([10]; time 0.0 min): 100.0%
Human Plasma Prodrug (%) ([10]; time 10 min): 40.3%
Human Plasma Prodrug (%) ([10]; time 30 min): 23.5%
Human Plasma Prodrug (%) ([10]; time 60 min): 12.0%
Human Plasma Prodrug (%) ([10]; time 120 min): 3.4%
Human Plasma Prodrug (%) ([10]; time 240 min): 0.8%
Conversion (%) [1]: 0%
Notes (stability in words) [1]: Stable;
Condition 1 Conversion (%) ([11]; pH 1.5): 0%

CCC(C)CC(=O)OC1=C[C@@H]2N(C)CC[C@]2(c2ccc(OC)c(OC)c2)CC1 (stereo partly drawn) [Compound 316, [(3aS,7aS)-3a-(3,4-dimethoxyphenyl)-1-methyl-3,4,5,7a-tetrahydro-2H-indol-6-yl]3-methyl pentanoate]
conversion to 001 in vivo [12]: converts to 001 in vivo
Condition 2 Conversion (%) ([13]; time 1 min): 0%
Condition 2 Conversion (%) ([13]; time 5 min): 0%
Condition 2 Conversion (%) ([13]; time 30 min): 0%
Condition 2 Conversion (%) ([13]; time 1 h): 0%
Condition 2 Conversion (%) ([13]; time 4 h): 0%
Condition 2 Conversion (%) ([13]; time 24 h): 0%
Condition 1 Conversion (%) ([11]; SGF with pepsin pH 1.5, 37° C., 0.5 mM, time 1 min): 0%
Condition 1 Conversion (%) ([11]; SGF with pepsin pH 1.5, 37° C., 0.5 mM, time 5 min): 0%
Condition 1 Conversion (%) ([11]; SGF with pepsin pH 1.5, 37° C., 0.5 mM, time 30 min): 0%
Condition 1 Conversion (%) ([11]; SGF with pepsin pH 1.5, 37° C., 0.5 mM, time 1 h): 0%
Condition 1 Conversion (%) ([11]; SGF with pepsin pH 1.5, 37° C., 0.5 mM, time 4 h): 0%
Condition 1 Conversion (%) ([11]; SGF with pepsin pH 1.5, 37° C., 0.5 mM, time 24 h): 0%
